Assays:
FUS-mEGFP/RNA droplets = target: T1, FUS-mEGFP/RNA droplets (Homo sapiens, UniProt P35637); experiment: Rho800 titration in FUS-mEGFP/RNA droplets (confocal imaging of Rho800 and FUS-mEGFP intensity inside droplets); conditions: increasing Rho800 concentrations, FIG. 4
T1 sequence (P35637 1-526): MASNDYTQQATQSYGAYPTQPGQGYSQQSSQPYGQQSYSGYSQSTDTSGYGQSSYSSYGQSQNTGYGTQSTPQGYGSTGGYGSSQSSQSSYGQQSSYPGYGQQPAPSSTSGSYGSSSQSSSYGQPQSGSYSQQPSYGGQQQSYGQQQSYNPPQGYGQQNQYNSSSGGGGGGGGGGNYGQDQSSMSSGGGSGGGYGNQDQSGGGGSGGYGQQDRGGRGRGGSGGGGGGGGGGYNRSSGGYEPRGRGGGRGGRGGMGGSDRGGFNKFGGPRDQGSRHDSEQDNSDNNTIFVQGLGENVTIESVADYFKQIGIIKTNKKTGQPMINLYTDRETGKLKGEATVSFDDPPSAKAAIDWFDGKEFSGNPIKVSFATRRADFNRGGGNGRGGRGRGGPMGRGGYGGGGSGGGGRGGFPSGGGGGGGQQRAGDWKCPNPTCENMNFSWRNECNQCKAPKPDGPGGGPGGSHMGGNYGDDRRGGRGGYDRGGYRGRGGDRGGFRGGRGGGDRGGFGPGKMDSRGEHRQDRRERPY
Description: For partitioning study, droplets were prepared in a low-attachment 384-well plate by mixing recombinant FUS-mEGFP protein with synthetic PrD RNA, in the presence of the indicated concentration of Rho800, at a final concentration of […] FUS-mEGFP and 250 nM PrD RNA, using an automated liquid handler. The droplets were incubated at room temperature, in the dark for 4 hours and imaged using a high content confocal fluorescence microscope. Values indicated on the y-axis of FIG. 4 (n=3) were obtained by quantitative image analysis and represent the mean per well intensity of FUS-mEGFP and Rho800 inside segmented droplets.

FUS-RRM = target: T2, FUS-RRM (Homo sapiens, UniProt P35637); experiment: NMR 1H/15N-HSQC titration of FUS-RRM with Rho800 (chemical shift perturbations); format: binding; conditions: CSPs by 1H/15N-HSQC 2D-NMR; FIG. 5A, 5B
T2 construct: made in house; host or cells: E. coli
T2 sequence (P35637 285-371 limits assumed): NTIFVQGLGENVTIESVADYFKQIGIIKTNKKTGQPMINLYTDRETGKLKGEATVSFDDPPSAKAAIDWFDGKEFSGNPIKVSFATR
Description: For binding study, recombinant ^15N-isotope and ^15N/^13C-labeled FUS-RRM proteins were expressed in E. coli and purified using published methods. NMR peak assignments were transferred from publicly available data repositories and confirmed using standard 3D NMR methods. […] protein was titrated with Rho800, ^1H/^15N-HSQC (heteronuclear single quantum coherence) were recorded, and chemical shift perturbations (CSPs) were calculated from the […] Rho800 spectra.

FUS-SNAP condensates = target: T3, FUS-SNAP condensates (Homo sapiens, UniProt P35637); experiment: Partitioning of RhoB into FUS-SNAP condensates formed in vitro (fluorescence and mass spectrometry); conditions: RhoB 5 μM and 1.25 μM; fluorescence spectroscopy (RhoB-FL) and mass spectroscopy (RhoB-MS); fraction of RhoB in supernatant; FIG. 3A
T3 sequence (P35637 1-526): T1 sequence (P35637 1-526)
Description: SNAP-tagged FUS protein (“FUS-SNAP”) and RhoB were mixed and subjected to a phase separation condition. The final concentration of RhoB in the reaction was 5 μM and 1.25 μM. For control experiment, no RhoB was added. The partition characteristic of RhoB to FUS-SNAP condensate was then measured by both a fluorescence spectroscopy and a mass spectroscopy-based technique described herein.
Images of the condensate droplets were acquired with a confocal microscope for appropriate setting for RhoB. The background signal of FUS-SNAP droplets in the absence of RhoB was also recorded. Fluorescence intensity was measured inside a FUS-SNAP condensate and in a region next to (outside) the FUS-SNAP condensate, and corrected for background signal (no RhoB controls), to calculate the fraction of RhoB in extra-condensate solution (i.e., supernatant).
A mass spectrometry-based method was used to measure the partition characteristics of RhoB and compared to measurements obtained using the fluorescence-based assay above. […] The amount of RhoB in the supernatant and a reference reaction were measured using mass spectrometry. The partition characteristic was then calculated based on the fraction of RhoB in extra-condensate solution (i.e., supernatant).

FUS-SNAP protein = target: T4, FUS-SNAP protein (Homo sapiens, UniProt P35637); experiment: Binding affinity of RhoB to FUS-SNAP protein in the light phase (Dianthus MST); conditions: FIG. 3B
T4 sequence (P35637 1-526): T1 sequence (P35637 1-526)
Description: The binding affinity (Kd) of RhoB to FUS-SNAP protein in the light phase was measured using Dianthus MST technology.

FUS-EGFP condensate = target: T5, FUS-EGFP condensate (Homo sapiens, UniProt P35637); experiment: Modulation of FUS-EGFP partitioning into the condensate by RhoB (confocal microscopy); format: biochemical; conditions: 1.5 μM RhoB vs no RhoB; FIG. 3C
T5 sequence (P35637 1-526): T1 sequence (P35637 1-526)
Description: EGFP-tagged FUS protein (“FUS-EGFP”) and RhoB were mixed and subjected to phase separation condition. The final concentration of RhoB in the reaction was 1.5 μM. For control experiment, no RhoB was added. Images were acquired with a confocal microscope, and EGFP signal inside (I-in) and outside (I-out) of the FUS-EGFP condensate was measured as described above.

Structure (SMILES) | partitioning of Rho800 into the condensate droplets (FUS-mEGFP/RNA droplets; 4 hours at room temperature) | partitioning of FUS-mEGFP in the condensate droplets in the presence of Rho800 (FUS-mEGFP/RNA droplets) | binding of Rho800 to FUS-RRM domain (FUS-RRM) | partitioning of RhoB into FUS-SNAP condensates (FUS-SNAP condensates) | Kd (FUS-SNAP protein) [µM] | partitioning of EGFP-labeled FUS into the condensate in the presence of RhoB (FUS-EGFP condensate)
N#CC1=c2cc3c4c(c2Oc2c1cc1c5c2CCCN5CCC1)CCC[N+]=4CCC3 [Rho800] | increased partitioning of the compound into the condensate droplets | FUS-mEGFP de-partitioning from the condensate droplets | binds directly to the FUS-RRM domain | – | – | –
CCN(CC)c1ccc2c(-c3ccccc3C(=O)O)c3ccc(=[N+](CC)CC)cc-3oc2c1 [RhoB, Rhodamine B] | – | – | – | partitions into FUS-SNAP condensates | 17.1 | partitioned less into the condensate

Reference: patent publication US20230314443A1, “METHODS OF IDENTIFYING INTERACTIONS OF A COMPOUND AND A CONDENSATE, OR A COMPONENT THEREOF, AND USES THEREOF” (Dewpoint Therapeutics, Inc., priority 2020, published 2023)
